# Experimental data published in patent US11786492B2, “Therapeutic agent for phosphodiesterase inhibition and its related disorders” (Novalead Pharma Inc, priority 2017, dated 2023).
# Tests used:
# [1] = tested on: Human IL-17A; assay: IL-17A release from stimulated PBMCs, ELISA; type: cell-based; details: PMA+Ionomycin, 18 hrs
# Description: (§1) Fresh human blood from healthy volunteer was collected in anticoagulant (5 mM) ethylene diamine tetra acetic acid (EDTA) containing tubes. The growth medium used was RPMI-1640 medium (with 3% FBS) and incubated at 37° C. for 60 mins in a 5% CO2 incubator with vehicle used as 1% DMSO. The cell viability was checked at various time points using Alamar blue and fluorescence readings were taken at excitation of 544 nm and emission of 590 nm.
# (§2) PBMCs were stimulated with different stimulators as follows: • a. Cells were exposed to stimulator LPS at 100 ng/mL for 18 hrs to stimulate TNF-α, IL-6, IFN-γ, IL10, IL-1β • b. Cells were exposed to stimulator IFN-γ+LPS at 100 ng/mL+1 μg/mL for 18 hrs to stimulate IL-12 • c. Cells were exposed to stimulator PMA+Ionomycin at 50 ng/mL+1 μg/mL for 18 hrs to stimulate IL-23, IL-22, IL-17A, IL-17F
# (§3) After 18 hrs supernatants were collected and centrifuged to remove any cell debris and aliquots were used for ELISA.
# [2] = target: PDE2A (Homo sapiens, UniProt O00408); assay: Fluorescence polarization assay PDE2A; type: biochemical; details: substrate cGMP
# Description: An experiment to check inhibition of various subtypes of the target Phosphodiesterase (PDE) enzyme in in-vitro assay was performed. […] PDE1A, PDE2A, PDE4A, PDE4B, PDE4C, PDE4D, PDE5A, PDE7A, PDE9A, PDE10A.
# [3] = tested on: HaCaT cells; assay: Keratinocyte (HaCaT) proliferation, MTT assay; type: cell-based, human
# Description: An experiment to check keratinocyte proliferation inhibitory activity of selected compounds of Formula-I was performed to establish its application in skin disorders related to keratinocyte hyper-proliferation. HaCaT cells, a human immortalized cell line derived from keratinocytes, representing hyper-proliferating keratinocytes was investigated for anti-proliferative potential of the selected compounds by MTT assay.
# [4] = tested on: Human IL-6; assay: IL-6 release from stimulated PBMCs, ELISA; type: cell-based; details: LPS 100 ng/mL, 18 hrs
# Description: as §1, §2, §3
# [5] = tested on: Human IL-22; assay: IL-22 release from stimulated PBMCs, ELISA; type: cell-based; details: PMA+Ionomycin, 18 hrs
# Description: as §1, §2, §3
# [6] = tested on: TNF-α; assay: TNF-α release from stimulated HaCaT cells, ELISA; type: cell-based, human; details: IFN-γ 50 ng/mL, 48 hrs
# Description: (§4) HaCaT cells were maintained in T-75 cm2 flask in Dulbecco's modified Eagle medium supplemented with FBS (10%), L-glutamine (2 mM), penicillin (100 ug/ml), streptomycin (100 ug/ml) at 37° C. in 5% CO2 incubator. Cell growth was maintained to 70-80% confluence for seeding and vehicle used was 1% DMSO. The cell viability was checked at various time points using Alamar blue and fluorescence readings were taken at excitation of 544 nm and emission of 590 nm.
# (§5) HaCaT cells were stimulated with different stimulators as follows: • a. Cells were exposed to stimulator LPS at 1 μg/mL for 48 hrs to stimulate IL-1β • b. Cells were exposed to stimulator IFN-γ at 50 ng/mL for 48 hrs to stimulate TNF-α, IL-6
# (§6) After 48 hrs supernatants were collected and centrifuged to remove any cell debris and aliquots were used for ELISA.
# [7] = tested on: HaCaT cells; assay: Cell viability of HaCaT cells, Alamar blue; type: cell-based, human
# Description: as §4
# [8] = tested on: Human IL-12; assay: IL-12 release from stimulated PBMCs, ELISA; type: cell-based; details: IFN-γ+LPS, 18 hrs
# Description: as §1, §2, §3
# [9] = tested on: human PBMCs; assay: Cell viability of human PBMCs, Alamar blue; type: cell-based
# Description: as §1
# [10] = tested on: IL-6; assay: IL-6 release from stimulated HaCaT cells, ELISA; type: cell-based, human; details: IFN-γ 50 ng/mL, 48 hrs
# Description: as §4, §5, §6
# [11] = tested on: Human IFN-γ; assay: IFN-γ release from stimulated PBMCs, ELISA; type: cell-based; details: LPS 100 ng/mL, 18 hrs
# Description: as §1, §2, §3
# [12] = tested on: Human IL-10; assay: IL-10 release from stimulated PBMCs, ELISA; type: cell-based; details: LPS 100 ng/mL, 18 hrs
# Description: as §1, §2, §3
# [13] = tested on: Human IL-1β; assay: IL-1β release from stimulated PBMCs, ELISA; type: cell-based; details: LPS 100 ng/mL, 18 hrs
# Description: as §1, §2, §3
# Sequence of PDE2A (O00408 whole entry, species assumed): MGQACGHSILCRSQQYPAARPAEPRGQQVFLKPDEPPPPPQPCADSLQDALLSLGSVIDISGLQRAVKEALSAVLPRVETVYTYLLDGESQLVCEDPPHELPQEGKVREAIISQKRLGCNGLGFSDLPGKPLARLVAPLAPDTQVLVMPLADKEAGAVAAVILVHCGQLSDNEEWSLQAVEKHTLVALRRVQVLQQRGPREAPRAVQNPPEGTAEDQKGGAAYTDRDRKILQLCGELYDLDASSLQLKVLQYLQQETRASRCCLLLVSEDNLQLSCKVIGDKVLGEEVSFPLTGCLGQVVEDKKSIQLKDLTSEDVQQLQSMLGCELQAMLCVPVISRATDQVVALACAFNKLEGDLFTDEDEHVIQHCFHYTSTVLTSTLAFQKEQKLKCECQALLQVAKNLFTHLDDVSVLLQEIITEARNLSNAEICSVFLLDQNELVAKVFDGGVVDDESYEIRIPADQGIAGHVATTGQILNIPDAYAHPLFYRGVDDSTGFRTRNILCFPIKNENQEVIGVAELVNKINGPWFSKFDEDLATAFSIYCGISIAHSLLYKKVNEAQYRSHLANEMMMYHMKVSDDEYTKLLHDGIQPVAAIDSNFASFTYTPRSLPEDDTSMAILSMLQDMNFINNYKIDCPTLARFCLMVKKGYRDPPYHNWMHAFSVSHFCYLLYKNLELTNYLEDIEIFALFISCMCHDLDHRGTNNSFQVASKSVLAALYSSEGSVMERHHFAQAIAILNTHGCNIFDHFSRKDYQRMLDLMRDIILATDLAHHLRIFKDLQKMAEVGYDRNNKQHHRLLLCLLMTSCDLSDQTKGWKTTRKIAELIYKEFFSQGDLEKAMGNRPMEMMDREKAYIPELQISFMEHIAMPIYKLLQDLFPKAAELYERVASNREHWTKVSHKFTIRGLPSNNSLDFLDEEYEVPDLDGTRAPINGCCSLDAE
structure (smiles),measurement,setting,value
CC(=O)Oc1ccccc1C(=O)Nc1ncc([N+](=O)[O-])s1 [Nitazoxanide],Human IL-17A concentration,[1]; 1 μM,39 pg/mL
same,Human IL-17A concentration,[1]; 10 μM,0 pg/mL
same,Human IL-17A concentration,[1]; 25 μM,0 pg/mL
same,Human IL-17A concentration,[1]; 50 μM,0 pg/mL
same,IC50,[2],67.5 µM
same,Cell proliferation (% of Control),"[3]; 0.01 μM, 24 h",126.3 % of Control
same,Cell proliferation (% of Control),"[3]; 0.01 μM, 48 h",113.7 % of Control
same,Cell proliferation (% of Control),"[3]; 0.01 μM, 72 h",114.6 % of Control
same,Cell proliferation (% of Control),"[3]; 0.1 μM, 24 h",114.3 % of Control
same,Cell proliferation (% of Control),"[3]; 0.1 μM, 48 h",115.2 % of Control
same,Cell proliferation (% of Control),"[3]; 0.1 μM, 72 h",102.4 % of Control
same,Cell proliferation (% of Control),"[3]; 0.5 μM, 24 h",120.3 % of Control
same,Cell proliferation (% of Control),"[3]; 0.5 μM, 48 h",113.4 % of Control
same,Cell proliferation (% of Control),"[3]; 0.5 μM, 72 h",106.2 % of Control
same,Cell proliferation (% of Control),"[3]; 1 μM, 24 h",123 % of Control
same,Cell proliferation (% of Control),"[3]; 1 μM, 48 h",110.8 % of Control
same,Cell proliferation (% of Control),"[3]; 1 μM, 72 h",101.7 % of Control
same,Cell proliferation (% of Control),"[3]; 5 μM, 24 h",121.6 % of Control
same,Cell proliferation (% of Control),"[3]; 5 μM, 48 h",91.8 % of Control
same,Cell proliferation (% of Control),"[3]; 5 μM, 72 h",82.9 % of Control
same,Cell proliferation (% of Control),"[3]; 10 μM, 24 h",103.8 % of Control
same,Cell proliferation (% of Control),"[3]; 10 μM, 48 h",77 % of Control
same,Cell proliferation (% of Control),"[3]; 10 μM, 72 h",69.5 % of Control
same,Cell proliferation (% of Control),"[3]; 50 μM, 24 h",92.6 % of Control
same,Cell proliferation (% of Control),"[3]; 50 μM, 48 h",69.6 % of Control
same,Cell proliferation (% of Control),"[3]; 50 μM, 72 h",49.6 % of Control
same,Cell proliferation (% of Control),"[3]; 100 μM, 24 h",89.7 % of Control
same,Cell proliferation (% of Control),"[3]; 100 μM, 48 h",61 % of Control
same,Cell proliferation (% of Control),"[3]; 100 μM, 72 h",33.1 % of Control
same,IC50,"[3]; Homo sapiens, HaCaT, 72 h, read-out: IC50 of cell proliferation",39.9 µM
same,Human IL-6 concentration,[4]; 1 μM,5520 pg/mL
same,Human IL-6 concentration,[4]; 10 μM,5342 pg/mL
same,Human IL-6 concentration,[4]; 25 μM,3567 pg/mL
same,Human IL-6 concentration,[4]; 50 μM,2531 pg/mL
same,Human IL-22 concentration,[5]; 1 μM,5612 pg/mL
same,Human IL-22 concentration,[5]; 10 μM,1093 pg/mL
same,Human IL-22 concentration,[5]; 25 μM,228 pg/mL
same,Human IL-22 concentration,[5]; 50 μM,0 pg/mL
same,TNF-α Conc.,[6]; 0.1 μM,3 ± 0.2 pg/mL
same,TNF-α Conc.,[6]; 0.5 μM,2.5 ± 0.5 pg/mL
same,TNF-α Conc.,[6]; 1 μM,2.3 ± 0.4 pg/mL
same,% Viability (±S.E.M.),"[7]; 0.1 μM, 24 hrs",89 ± 1%
same,% Viability (±S.E.M.),"[7]; 0.1 μM, 48 hrs",99 ± 9%
same,% Viability (±S.E.M.),"[7]; 0.1 μM, 72 hrs",103 ± 3%
same,% Viability (±S.E.M.),"[7]; 1 μM, 24 hrs",81 ± 3%
same,% Viability (±S.E.M.),"[7]; 1 μM, 48 hrs",86 ± 8%
same,% Viability (±S.E.M.),"[7]; 1 μM, 72 hrs",91 ± 2%
same,% Viability (±S.E.M.),"[7]; 10 μM, 24 hrs",41 ± 1%
same,% Viability (±S.E.M.),"[7]; 10 μM, 48 hrs",40 ± 2%
same,% Viability (±S.E.M.),"[7]; 10 μM, 72 hrs",46 ± 3%
same,% Viability (±S.E.M.),"[7]; 50 μM, 24 hrs",18 ± 1%
same,% Viability (±S.E.M.),"[7]; 50 μM, 48 hrs",15 ± 2%
same,% Viability (±S.E.M.),"[7]; 50 μM, 72 hrs",18 ± 1%
same,% Viability (±S.E.M.),"[7]; 100 μM, 24 hrs",17 ± 1%
same,% Viability (±S.E.M.),"[7]; 100 μM, 48 hrs",13 ± 1%
same,% Viability (±S.E.M.),"[7]; 100 μM, 72 hrs",17 ± 1%
same,Concentration which exhibited cell viability of 70%,"[7]; HaCaT cells, maximum concentration for stimulation study",1 µM
same,Human IL-12 concentration,[8]; 1 μM,3892 pg/mL
same,Human IL-12 concentration,[8]; 10 μM,1500 pg/mL
same,Human IL-12 concentration,[8]; 25 μM,406 pg/mL
same,Human IL-12 concentration,[8]; 50 μM,101 pg/mL
same,% Viability (±S.E.M.),"[9]; 0.01 μM, 24 hrs",97 ± 1%
same,% Viability (±S.E.M.),"[9]; 0.01 μM, 48 hrs",106 ± 8%
same,% Viability (±S.E.M.),"[9]; 0.01 μM, 72 hrs",113 ± 10%
same,% Viability (±S.E.M.),"[9]; 1 μM, 24 hrs",91 ± 2%
same,% Viability (±S.E.M.),"[9]; 1 μM, 48 hrs",105 ± 7%
same,% Viability (±S.E.M.),"[9]; 1 μM, 72 hrs",106 ± 2%
same,% Viability (±S.E.M.),"[9]; 100 μM, 24 hrs",76 ± 4%
same,% Viability (±S.E.M.),"[9]; 100 μM, 48 hrs",42 ± 4%
same,% Viability (±S.E.M.),"[9]; 100 μM, 72 hrs",11 ± 3%
same,Concentration which exhibited cell viability of 70%,"[9]; PBMCs, maximum concentration for stimulation study",50 µM
same,IL-6 Conc.,[10]; 0.1 μM,83 ± 1 pg/mL
same,IL-6 Conc.,[10]; 0.5 μM,79 ± 4 pg/mL
same,IL-6 Conc.,[10]; 1 μM,70 ± 4 pg/mL
same,Human IFN-γ concentration,[11]; 1 μM,217 pg/mL
same,Human IFN-γ concentration,[11]; 25 μM,152 pg/mL
same,Human IFN-γ concentration,[11]; 50 μM,191 pg/mL
same,Human IL-10 concentration,[12]; 1 μM,1799 pg/mL
same,Human IL-10 concentration,[12]; 10 μM,512 pg/mL
same,Human IL-10 concentration,[12]; 25 μM,76 pg/mL
same,Human IL-10 concentration,[12]; 50 μM,42 pg/mL
same,Human IL-1β concentration,[13]; 1 μM,4470 pg/mL
same,Human IL-1β concentration,[13]; 10 μM,3971 pg/mL
same,Human IL-1β concentration,[13]; 25 μM,3203 pg/mL
same,Human IL-1β concentration,[13]; 50 μM,2506 pg/mL
